Data set [1] relates to Mycobacterium avium. In words: Growth inhibition of Mycobacterium avium ATCC 25291 at 2 ug/ml after 6 days by microplate alamar blue assay. The format is functional, Mycobacterium avium subsp. avium ATCC 25291. To be noted: ATCC 25291, 144 h, read-out: GI. On the technique in general: Resazurin is reduced to fluorescent resorufin, in cell work by metabolically active cells.

Data set [2] concerns Mycobacterium tuberculosis. The data set can be described thus: Growth inhibition of Mycobacterium tuberculosis H37Ra at 0.5 ug/ml after 6 days by microplate alamar blue assay. To be noted: 144 h, read-out: GI. The format is functional.
Data set [3] relates to Mycobacterium tuberculosis. In words: Growth inhibition of Mycobacterium tuberculosis H37Ra at 0.002 ug/ml after 6 days by microplate alamar blue assay. The format is functional. To be noted: 144 h, read-out: GI.
Data set [4] deals with Escherichia coli. In words: Antibacterial activity against Escherichia coli ATCC 25922 after 16 to 20 hrs by broth microdilution method. It counts as functional.
Data set [5] has as its system Enterococcus faecalis. The data set can be described thus: Antibacterial activity against Enterococcus faecalis ATCC 29212 after 16 to 20 hrs by broth microdilution method. Particulars: for MIC: read-out: MIC100. It counts as functional.
Data set [6] concerns Salmonella typhimurium. In words: Antibacterial activity against clinical isolates of Salmonella typhimurium after 16 to 20 hrs by broth microdilution method. The format is functional. Particulars: for MIC: Salmonella enterica, read-out: MIC100. Background: Dilution methods test growth across graded concentrations, often in twofold steps.
For data set [7], the system named is Pseudomonas aeruginosa. In words: Antibacterial activity against Pseudomonas aeruginosa ATCC 13048 after 16 to 20 hrs by broth microdilution method. The format is functional.
The subject of data set [8] is Staphylococcus aureus. In words: Antibacterial activity against Staphylococcus aureus ATCC 25923 after 16 to 20 hrs by broth microdilution method. To be noted: for MIC: read-out: MIC100. The format is functional.
In data set [9] the test system is Mycobacterium tuberculosis. The data set can be described thus: Growth inhibition of Mycobacterium tuberculosis H37Ra at 200 ug/ml after 6 days by microplate alamar blue assay. The format is functional. To be noted: 144 h, read-out: GI.
The subject of data set [10] is Staphylococcus aureus. In words: Growth inhibition of Staphylococcus aureus ATCC 25923 at 100 ug/ml after 6 days in presence of 0.1 ug/ml of gentamicin by microplate alamar blue assay. The format is functional.
Data set [11] in a line: Cytotoxicity against African green monkey Vero cells assessed as decrease in cell viability after 3 days by XTT assay. It counts as toxicity, cell-based. To be noted: chlorocebus sabaeus. (Formazan colour is commonly taken as a measure of viable cells.)
The test system of data set [12] is Enterococcus faecalis. In words: Growth inhibition of Enterococcus faecalis ATCC 29212 at 100 ug/ml after 6 days in presence of 4.5 ug/ml of gentamicin by microplate alamar blue assay. The format is functional.
In data set [13] the test system is Mycobacterium avium. The data set can be described thus: Growth inhibition of Mycobacterium avium ATCC 25291 at 200 ug/ml after 6 days by microplate alamar blue assay. The format is functional, Mycobacterium avium subsp. avium ATCC 25291. To be noted: ATCC 25291, 144 h, read-out: GI.
The test system of data set [14] is Staphylococcus aureus. In words: Growth inhibition of Staphylococcus aureus ATCC 25923 assessed as fractional inhibitory concentration index at 100 ug/ml after 6 days in presence of 0.1 ug/ml of gentamicin by microplate alamar blue assay. It counts as functional.
Data set [15] concerns Enterococcus faecalis. In words: Growth inhibition of Enterococcus faecalis ATCC 29212 assessed as fractional inhibitory concentration index at 100 ug/ml after 6 days in presence of 4.5 ug/ml of gentamicin by microplate alamar blue assay. The format is functional.
The subject of data set [16] is Mycobacterium tuberculosis. The data set can be described thus: Growth inhibition of Mycobacterium tuberculosis H37Ra at 75 ug/ml after 6 days by microplate alamar blue assay. It counts as functional. Particulars: 144 h, read-out: GI.
Data set [17] concerns Mycobacterium tuberculosis. In words: Growth inhibition of Mycobacterium tuberculosis H37Ra at 100 ug/ml after 6 days by microplate alamar blue assay. Particulars: 144 h, read-out: GI. It counts as functional.
Data set [18] deals with Mycobacterium tuberculosis. The data set can be described thus: Growth inhibition of Mycobacterium tuberculosis H37Ra at 75 ug/ml after 6 days in presence of 0.2 ug/ml of isoniazid by microplate alamar blue assay. The format is functional.
The test system of data set [19] is Mycobacterium tuberculosis. In words: Growth inhibition of Mycobacterium tuberculosis H37Ra at 50 ug/ml after 6 days in presence of 0.012 ug/ml of isoniazid and 0.002 ug/ml of rifampicin by microplate alamar blue assay. The format is functional.
The test system of data set [20] is Mycobacterium tuberculosis. In words: Growth inhibition of Mycobacterium tuberculosis H37Ra assessed as fractional inhibitory concentration index at 50 ug/ml after 6 days in presence of 0.012 ug/ml of isoniazid and 0.002 ug/ml of rifampicin by microplate alamar blue assay. The format is functional.
Data set [21] has as its system Mycobacterium tuberculosis. In words: Growth inhibition of Mycobacterium tuberculosis H37Ra at 100 ug/ml after 6 days in presence of 0.2 ug/ml of isoniazid by microplate alamar blue assay. It counts as functional.
Data set [22] concerns Mycobacterium tuberculosis. In words: Growth inhibition of Mycobacterium tuberculosis H37Ra assessed as fractional inhibitory concentration index at 75 ug/ml after 6 days in presence of 0.2 ug/ml of isoniazid by microplate alamar blue assay. The format is functional.
Data set [23] concerns Pseudomonas aeruginosa. The data set can be described thus: Growth inhibition of Pseudomonas aeruginosa ATCC 13048 at 10 to 200 ug/ml after 16 to 20 hrs by broth microdilution method. The format is functional.
Data set [24] relates to Mycobacterium tuberculosis. The data set can be described thus: Growth inhibition of Mycobacterium tuberculosis H37Ra at 50 ug/ml after 6 days in presence of 0.006 ug/ml of isoniazid and 0.002 ug/ml of rifampicin by microplate alamar blue assay. The format is functional.
The subject of data set [25] is Mycobacterium tuberculosis. In words: Growth inhibition of Mycobacterium tuberculosis H37Ra at 50 ug/ml after 6 days by microplate alamar blue assay. The format is functional. To be noted: 144 h, read-out: GI.
For data set [26], the system named is Mycobacterium tuberculosis. The data set can be described thus: Growth inhibition of Mycobacterium tuberculosis H37Ra assessed as fractional inhibitory concentration index at 100 ug/ml after 6 days in presence of 0.2 ug/ml of isoniazid by microplate alamar blue assay. It counts as functional.
For data set [27], the system named is Mycobacterium tuberculosis. In words: Growth inhibition of Mycobacterium tuberculosis H37Ra assessed as fractional inhibitory concentration index at 50 ug/ml after 6 days in presence of 0.006 ug/ml of isoniazid and 0.002 ug/ml of rifampicin by microplate alamar blue assay. It counts as functional.
For data set [28], the system named is Mycobacterium tuberculosis. In words: Inhibition of Mycobacterium tuberculosis H37Ra infected in human THP1 cells assessed as reduction in surviving bacteria at 200 ug/ml after 7 days by serial dilution method. It counts as functional. Particulars: THP-1, 168 h.
Data set [29] concerns Escherichia coli. In words: Growth inhibition of Escherichia coli ATCC 25922 at 10 to 200 ug/ml after 16 to 20 hrs by broth microdilution method. The format is functional.
Data set [30] concerns Mycobacterium tuberculosis. In words: Growth inhibition of Mycobacterium tuberculosis H37Ra at 0.2 ug/ml after 6 days by microplate alamar blue assay. The format is functional. To be noted: 144 h, read-out: GI.
Data set [31] deals with Mycobacterium tuberculosis. In words: Growth inhibition of Mycobacterium tuberculosis H37Ra at 0.006 ug/ml after 6 days by microplate alamar blue assay. It counts as functional. Particulars: 144 h, read-out: GI.
In data set [32] the test system is Mycobacterium tuberculosis. The data set can be described thus: Growth inhibition of Mycobacterium tuberculosis H37Ra at 1 ug/ml after 6 days by microplate alamar blue assay. The format is functional. To be noted: 144 h, read-out: GI.
Data set [33] relates to Mycobacterium tuberculosis. In words: Inhibition of Mycobacterium tuberculosis H37Ra infected in human THP1 cells assessed as reduction in surviving bacteria at 1 ug/ml after 7 days by serial dilution method. Particulars: THP-1, 168 h. The format is functional.
Data set [34] has as its system Mycobacterium tuberculosis. In words: Growth inhibition of Mycobacterium tuberculosis H37Ra at 0.012 ug/ml after 6 days by microplate alamar blue assay. It counts as functional. Particulars: 144 h, read-out: GI.

Converted amounts (≈) assume the structure as drawn.

As to `CC[C@H]1OC(=O)[C@H](C)[C@@H](O[C@H]2C[C@@](C)(OC)[C@@H](O)[C@H](C)O2)[C@H](C)[C@@H](O[C@@H]2O[C@H](C)C[C@H](N(C)C)[C@H]2O)[C@](C)(OC)C[C@@H](C)C(=O)[C@H](C)[C@@H](O)[C@]1(C)O` [CLARITHROMYCIN], in [1], the inhibition of growth at 2 µg/mL is 100%.
In the case of `CO[C@H]1/C=C/O[C@@]2(C)Oc3c(C)c(O)c4c(O)c(c(/C=N/N5CCN(C)CC5)c(O)c4c3C2=O)NC(=O)/C(C)=C\C=C\[C@H](C)[C@H](O)[C@@H](C)[C@@H](O)[C@@H](C)[C@H](OC(C)=O)[C@@H]1C` [RIFAMPIN], the inhibition of growth at 0.5 µg/mL in [2] was 100%. The inhibition of growth at 0.002 µg/mL in [3] was determined as 46.2%. Further, in data set [1], the inhibition of growth at 2 µg/mL was 90%.
Turning to GENTAMICIN, the MIC100 amounted to 1 µg/mL in [4]; 12.5 µg/mL in data set [5]; 1 µg/mL in data set [6] (Salmonella enterica subsp. enterica serovar Typhimurium); 1 µg/mL in data set [7]; 0.5 µg/mL in [8].
The CC50 is the concentration that lowers cell viability or growth by half. Take `C#CCOc1cn([C@@H]2O[C@H](CO)[C@@H](O)[C@H]2F)c(=O)n(CC#C)c1=O`: the MIC is over 200 µg/mL in [4] (read-out: MIC100); 200 µg/mL (≈ 591 µM) in data set [5]; over 200 µg/mL in [6]; over 200 µg/mL in data set [7] (read-out: MIC100); 200 µg/mL (≈ 591 µM) in [8]. In addition, the inhibition of growth at 200 µg/mL in data set [9] amounted to 35%; in data set [13], 0%. Further, the “growth inhibition (GI)” value in data set [10] and in data set [12] was 100% throughout. In addition, in [11], the CC50 at 72 h is over 300 µg/mL. Also, the “fractional inhibitory concentration index (FICI)” value in [14] is given as 0.7; in data set [15], 0.86.
Broadly, the inhibition is the relative decrease from the control value, in per cent. On to `C#CCOc1cn([C@@H]2O[C@H](CO)[C@@H](O)[C@H]2F)c(=O)[nH]c1=O`, for which the inhibition of growth at 75 µg/mL in data set [16] came out at 1.15%. Besides, the inhibition of growth at 200 µg/mL in data set [9] was found to be 97%; in [13], 0%. In addition, the inhibition of growth at 100 µg/mL in data set [17] was found to be 3.15%. The “growth inhibition (GI)” value is recorded as 81.16% in data set [18]; 97.81% in data set [19]; 99.15% in data set [21]; 0% in [23]; 93.36% in data set [24]; 0% in data set [29]. The “fractional inhibitory concentration index (FICI)” value in data set [20] was found to be 0.09; in [22] it was 0.56; in data set [26], 0.03; in [27] it was 0.21. Further, the MIC in data set [5], in data set [6] and in [8] was over 200 µg/mL each time. For the same compound, in [11], the CC50 at 72 h is over 300 µg/mL. The inhibition of growth at 50 µg/mL in data set [25] is 2.51%. Further, the inhibition at 200 µg/mL in data set [28] was 50%.
As for `NNC(=O)c1ccncc1` [ISONIAZID], the inhibition of growth at 0.2 µg/mL in [30] turned out to be 48.8%. In addition, the inhibition of growth at 0.006 µg/mL in data set [31] is 1.47%. Further, in data set [32], the inhibition of growth at 1 µg/mL was 100%. Further, the inhibition at 1 µg/mL in [33] is over 90%. Besides, in [34], the inhibition of growth at 0.012 µg/mL was determined as 7.22%.
With `CN[C@H](CC(C)C)C(=O)N[C@H]1C(=O)N[C@@H](CC(N)=O)C(=O)N[C@H]2C(=O)N[C@H]3C(=O)N[C@H](C(=O)N[C@H](C(=O)O)c4cc(O)cc(O)c4-c4cc3ccc4O)[C@H](O)c3ccc(c(Cl)c3)Oc3cc2cc(c3O[C@@H]2O[C@H](CO)[C@@H](O)[C@H](O)[C@H]2O[C@H]2C[C@](C)(N)[C@H](O)[C@H](C)O2)Oc2ccc(cc2Cl)[C@H]1O` [VANCOMYCIN], the MIC in data set [5] amounted to 4.5 µg/mL (≈ 3.11 µM); in data set [8] it was 1.5 µg/mL (≈ 1.04 µM).

Source of the values: ChEMBL document CHEMBL3861999, “Investigation of C-5 alkynyl (alkynyloxy or hydroxymethyl) and/or N-3 propynyl substituted pyrimidine nucleoside analogs as a new class of antimicrobial agents” (Bioorg Med Chem, 2016).
